Assay results published in patent US20260130999A1, “METHODS FOR TREATING CANCERS ASSOCIATED WITH ETBR ACTIVATION” (ENB Therapeutics, Inc., priority 2022, published 2026).

Tested on: 4T-1-HER2 mammary tumors
Assay: 4T1-HER2 mammary tumors in syngeneic female BALB/c mice treated with anti-HER2 CAR-T, BQ-788-B and anti-PD1
Type: in vivo
Source text: Lentivirus for expression of an anti-HER2 CAR was produced by co-transfecting 293T-17 cells with lentiviral vector pLVX-EF1α-CAR-IRES-ZsGreen1 together with the packaging plasmids pSPAX2 and pMD2.G. Splenocytes from 6-week old female BALB/c mice were isolated by density-gradient centrifugation using a lymphocyte separation medium, Histopaque, activated in 24-well plates at a density of 1×10^6 cell/ml using a mouse T Cell Activation/Expansion Kit for 2-3 days, and then transduced with pLVX-EF1α-CAR-IRES-ZsGreen1 lentivirus at the multiplicity of infection of 20 in the presence of 8 µg/mL polybrene by centrifugation at 1,500×g for 2 hours at 32° C. GFP+ transduced T cells were analyzed by flow cytometry to evaluate the lentiviral transduction efficiency.
4T1-HER2 cells (4×10^6), were resuspended in 0.1 mL PBS and mixed with 0.1 mL Matrigel and injected subcutaneously into the right back region of BALB/c female mice (6-week-old, weighed 17-20 g). Tumor growth was monitored by caliper measurement every three days.
About 14 days after 4T-1-HER2 cell injection, when the tumor diameter reaches about 6 mm in diameter, mice were randomized into eight groups for treatments (6 mice per group).
Blank T or CAR-T cells (1×10^7 cells/mice) were injected intravenously into each mouse on day 11 and day 18 post-tumor inoculation. BQ-788-B ([…]) or PBS was administered via subcutaneous injection into each mouse, starting on day 10, every two or three days for a total of 9 injections. All mice were injected intraperitoneally with 20,000 IU IL-2 once every 2 days from day 14 to […] (Note: day 0 is defined as when 4T1-HER2 cells are injected into mice). Anti-PD1 or isotype control Ig (230 ug/mouse) was injected IP every 4 days, starting on day 11 post tumor inoculation (4 injections total). The eight treatment groups are listed below: • 1) Blank T+PBS+isotype • 2) CAR-T+PBS+isotype • 3) BQ-788-B+Blank T+isotype • 4) Blank T+PBS+anti-PD1 • 5) BQ-788-B+CAR-T+ isotype • 6) CAR-T+PBS+anti-PD1 • 7) BQ-788-B+Blank T+anti-PD1 • 8) BQ-788-B+CAR-T+ anti-PD1
Tumor growth was monitored by caliper measurement every three days. On the 30th day after 4T1-HER2 cell injection, all mice were euthanized by asphyxiation with CO2 followed by cervical dislocation. All tumors were dissected out and photographed before fixation in 10% formalin.

[2H]C[C@@H]1CCC[C@H](C[2H])N1C(=O)N[C@@H](CC(C)(C)C)C(=O)N[C@H](Cc1cn(C(=O)OC)c2ccccc12)C(=O)N[C@H](CCCC)C(=O)O [BQ-788-B]
tumor volumes at day 29 (BQ-788-B in combination with anti-PD1 and/or CAR-T therapy, compared to control, CAR-T alone, or PD-1 alone, FIG. 4): significantly reduced tumor volumes | tumor weights at day 30 (BQ-788-B in combination with anti-PD1 and/or CAR-T therapy, compared to control, CAR-T alone, or PD-1 alone, FIGS. 5A and 5B): significantly reduced tumor weights | anti-tumor efficacy of CAR-T cells, of anti-PD-1 antibody therapy and of their combinations (addition of BQ-788-B): significantly enhances the anti-tumor efficacy | tumor suppression at later time points (addition of BQ-788-B in mice treated with either anti-PD1 or CAR-T therapy): enhanced tumor suppression
